Data from patent US20110159019A1, “2,4-DIAMINOPYRIMIDINE COMPOUND” (priority 2008, published 2011).
Counter-ions that a name gives are not always drawn.

Target: T1, Full-length human PKCθ (Homo sapiens, UniProt Q04759)
T1 construct: Full-length human PKCθ (Carna Biosciences, final 31 ng/mL); purchased Carna Biosciences
Assay: Measurement of human PKCθ enzyme inhibition activity (HTRF KinEASE S1 kit)
Format: biochemical
Conditions: full-length human PKCθ, ATP 30 μM, HTRF; read-out: IC50 (nM), human PKCθ enzyme inhibition
Description: Test Method 1: Measurement of Human PKCθ Enzyme Inhibition Activity
The test was carried out using a HTRF® KinEASE™ S1 kit (CIS bio). […] Then, 3 μL of an ATP liquid (final 30 μM) was dispensed therein to carry out an enzyme reaction at room temperature for 1 hour.
Ex represents Compound No. of Examples as described later.

T1 sequence (Q04759 whole entry): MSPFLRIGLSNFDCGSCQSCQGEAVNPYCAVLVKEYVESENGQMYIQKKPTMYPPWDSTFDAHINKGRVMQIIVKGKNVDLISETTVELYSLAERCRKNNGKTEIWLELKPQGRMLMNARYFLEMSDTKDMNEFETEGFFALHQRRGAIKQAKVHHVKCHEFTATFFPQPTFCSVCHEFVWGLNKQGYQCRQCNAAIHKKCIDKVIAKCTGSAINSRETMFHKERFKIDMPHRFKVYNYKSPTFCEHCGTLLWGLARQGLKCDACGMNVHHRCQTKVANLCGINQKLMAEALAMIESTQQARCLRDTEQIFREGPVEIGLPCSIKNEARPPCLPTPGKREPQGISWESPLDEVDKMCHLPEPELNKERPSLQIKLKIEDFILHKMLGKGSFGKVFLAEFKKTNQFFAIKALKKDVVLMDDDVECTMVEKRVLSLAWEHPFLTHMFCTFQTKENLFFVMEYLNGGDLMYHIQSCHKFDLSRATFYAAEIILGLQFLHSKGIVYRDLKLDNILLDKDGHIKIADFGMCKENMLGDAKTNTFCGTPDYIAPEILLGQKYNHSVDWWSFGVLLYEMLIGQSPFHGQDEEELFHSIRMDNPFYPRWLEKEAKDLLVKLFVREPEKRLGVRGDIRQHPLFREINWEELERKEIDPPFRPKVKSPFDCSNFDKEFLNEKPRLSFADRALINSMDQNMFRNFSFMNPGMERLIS

| Compound | IC50 [nM] |
| --- | --- |
| N#Cc1cnc(NCc2ccccc2Cl)nc1NC[C@]12CC3C[C@H](C1)[C@@H](NCCCO)[C@@H](C3)C2 (relative stereo) [Example 28] | 1.3 |
| N#Cc1cnc(NCc2ccccc2Cl)nc1NC[C@]12CC3C[C@H](C1)[C@@H](N[C@H]1CC[C@H](O)CC1)[C@@H](C3)C2 (relative stereo) [Example 60] | 1.1 |
| CN(C)[C@@H]1[C@@H]2CC3C[C@H]1C[C@@](CNc1nc(NCc4ccccc4OC(F)(F)F)ncc1C#N)(C3)C2 (relative stereo) [Example 70] | 1.9 |
| N#Cc1cnc(NCc2ccccc2OC(F)(F)F)nc1NC[C@]12CC3C[C@H](C1)[C@@H](NC1CCOCC1)[C@@H](C3)C2 (relative stereo) [Example 74] | 0.65 |
| N#Cc1cnc(NCc2ccccc2OC(F)(F)F)nc1NC[C@]12CC3C[C@H](C1)[C@@H](NCc1cccnc1)[C@@H](C3)C2 (relative stereo) [Example 76] | 2.3 |
| N#Cc1cnc(NCc2cccc(Cl)c2Cl)nc1NC[C@]12CC3C[C@H](C1)[C@@H](N)[C@@H](C3)C2 (relative stereo) [Example 140] | 2.5 |
| COc1ccc(Cl)c(CNc2ncc(C#N)c(NC[C@]34CC5C[C@H](C3)[C@@H](N)[C@@H](C5)C4)n2)c1 (relative stereo) [Example 150] | 5.3 |
| N[C@@H]1[C@@H]2CC3C[C@H]1C[C@@](CNc1nc(NCc4ccccc4OC(F)(F)F)ncc1C(F)(F)F)(C3)C2 (relative stereo) [Example 178] | 7.6 |
| COc1ccccc1CNc1ncc(C#N)c(NC[C@]23CC4C[C@H](C2)[C@@H](NCC(CO)CO)[C@@H](C4)C3)n1 (relative stereo) [Example 194] | 6.5 |
| N#Cc1cnc(NCc2ccccc2Cl)nc1NC[C@]12CC3C[C@H](C1)[C@@H](NCC(=O)N1CCC(O)CC1)[C@@H](C3)C2 (relative stereo) [Example 204] | 11 |
| N#Cc1cnc(NCc2ccccc2Cl)nc1NC[C@]12CC3C[C@H](C1)[C@@H](NCCN1CCC(O)CC1)[C@@H](C3)C2 (relative stereo) [Example 208] | 1.6 |
| N#Cc1cnc(NCc2ccccc2OC(F)(F)F)nc1NC[C@]12CC3C[C@H](C1)[C@@H](NC1CCC(N4CCC[C@H]4CO)CC1)[C@@H](C3)C2 (relative stereo) [Example 240] | 0.064 |
| CC(C)N1CCC(N[C@@H]2[C@@H]3CC4C[C@H]2C[C@@](CNc2nc(NCc5ccccc5OC(F)(F)F)ncc2C#N)(C4)C3)CC1 (relative stereo) [Example 246] | 0.31 |
| CSc1ccccc1CNc1ncc(C#N)c(NC[C@]23CC4C[C@H](C2)[C@@H](NC[C@H]2CC[C@@H](O)CC2)[C@@H](C4)C3)n1 (relative stereo) [Example 264] | 1.9 |
| N#Cc1cnc(NCc2ccccc2OC(F)(F)F)nc1NC[C@]12CC3C[C@H](C1)[C@@H](N[C@H]1CC[C@@H](NC4CCOCC4)CC1)[C@@H](C3)C2 (relative stereo) [Example 284] | 0.28 |
| N#Cc1cnc(NCCc2cccc(Cl)c2)nc1NC[C@]12CC3C[C@H](C1)[C@@H](N)[C@@H](C3)C2 (relative stereo) [Example 292] | 10 |
| CC(Nc1ncc(C#N)c(NC[C@]23CC4C[C@H](C2)[C@@H](N)[C@@H](C4)C3)n1)c1ccccc1Cl (relative stereo) [Example 302] | 14 |
| N#Cc1cnc(NCc2ccccc2Cl)nc1NC[C@]12CC3C[C@H](C1)C(N1CCC(N)CC1)[C@@H](C3)C2 (relative stereo) [Example 318] | 0.86 |
| N#Cc1cnc(NCc2ccccc2Cl)nc1NC[C@]12CC3C[C@H](C1)[C@@H](NC[C@H]1CC[C@H](CO)CC1)[C@@H](C3)C2 (relative stereo) [Example 341] | 1.7 |
| CSc1ncccc1CNc1ncc(C#N)c(NC[C@]23CC4C[C@H](C2)[C@@H](NC[C@H]2CC[C@H](CO)CC2)[C@@H](C4)C3)n1 (relative stereo) [Example 342] | 0.48 |
| N#Cc1cnc(NCc2ccccc2OC(F)F)nc1NC[C@]12CC3C[C@H](C1)[C@@H](NC[C@H]1CC[C@H](O)CC1)[C@@H](C3)C2 (relative stereo) [Example 348] | 0.41 |
| N#Cc1cnc(NCc2ccccc2Cl)nc1NC[C@]12CC3C[C@H](C1)[C@@H](NCC1CCN(CC(F)F)CC1)[C@@H](C3)C2 (relative stereo) [Example 357] | 1.2 |

| Compound | IC50 [nM] |
| --- | --- |
| C[C@]1(O)CC[C@H](CN[C@@H]2[C@@H]3CC4C[C@H]2C[C@@](CNc2nc(NCc5ccccc5OC(F)(F)F)ncc2C#N)(C4)C3)CC1 (relative stereo) [Example 363] | 0.58 |
| C[C@]1(O)CC[C@@H](CN[C@@H]2[C@@H]3CC4C[C@H]2C[C@@](CNc2nc(NCc5ccccc5OC(F)F)ncc2C#N)(C4)C3)CC1 (relative stereo) [Example 371] | 0.7 |
| N#Cc1cnc(NCc2ccccc2Cl)nc1NC[C@]12CC3C[C@H](C1)[C@@H](NC1CCNCC1F)[C@@H](C3)C2 (relative stereo) [Example 383] | 1.6 |
| N[C@@H]1[C@@H]2CC3C[C@H]1C[C@@](CNc1nc(NCc4ccccc4OC(F)(F)F)ncc1[N+](=O)[O-])(C3)C2 (relative stereo) [Example 388] | 3.3 |
| N[C@@H]1[C@@H]2CC3C[C@H]1C[C@@](CNc1nc(NCc4ccccc4OC(F)(F)F)ncc1F)(C3)C2 (relative stereo) [Example 390] | 2.1 |
| N#Cc1cnc(NCc2ccccc2OC(F)(F)F)nc1NC[C@]12CC3C[C@H](C1)[C@@H](N1CCC(O)C1)[C@@H](C3)C2 (some centres unmarked) [Example 11] | 1 |
| N#Cc1cnc(NCc2ccccc2OC(F)(F)F)nc1NCC1CN2CCC1CC2 (centres unmarked) [Example 48] | 54 |
| N#Cc1cnc(NCc2ccccc2OC(F)(F)F)nc1NC[C@]12CC3C[C@H](C1)C[C@@](CN)(C3)C2 [Example 57] | 15 |
| N#Cc1cnc(NCc2ccccc2OC(F)(F)F)nc1NC[C@H]1C[C@H](N)C1 [Example 125] | 89 |
| N#Cc1cnc(NCc2ccccc2OC(F)(F)F)nc1NC[C@@H]1CC[C@@H](N)C1 [Example 126] | 100 |
| COc1ccc(CO)cc1CNc1ncc(C#N)c(NC[C@]23CC4C[C@H](C2)[C@@H](N)[C@@H](C4)C3)n1 [Example 139] | 13 |
| N#Cc1cnc(NCCc2ccc(O)cc2)nc1NC[C@]12CC3C[C@H](C1)[C@@H](N)[C@@H](C3)C2 [Example 145] | 1.6 |
| N#Cc1cnc(NCc2ccccc2OC(F)(F)F)nc1NCCC(=O)N1CCNCC1 [Example 156] | 67 |
| N#Cc1cnc(NCc2cccnc2Cl)nc1NC[C@]12CC3C[C@H](C1)[C@@H](N)[C@@H](C3)C2 [Example 165] | 2.3 |
| N#Cc1cnc(NCc2ccccc2OC(F)(F)F)nc1NCC1CC2CCC(C1)N2 (centres unmarked) [Example 170, 4-[(8-azabicyclo[3.2.1]oct-3-ylmethyl)amino]-2-{[2-(trifluoromethoxy)benzyl]amino}pyrimidine-5-carbonitrile dihydrochloride] | 110 |
| N#Cc1cnc(NCc2ccccc2OC(F)(F)F)nc1NCC1[C@@H]2CC3C[C@H]1C[C@@](CN)(C3)C2 (some centres unmarked) [Example 183] | 29 |
| N#Cc1cnc(Nc2cccc(Br)c2)nc1NC[C@]12CC3C[C@H](C1)[C@@H](N)[C@@H](C3)C2 [Example 187] | 3.8 |
| COc1ccccc1CNc1ncc(C#N)c(NC[C@]23CC4C[C@H](C2)[C@@H](NCC(O)CCO)[C@@H](C4)C3)n1 (some centres unmarked) [Example 189] | 1.7 |
| N#Cc1cnc(NCc2ccccc2Cl)nc1NC[C@]12CC3C[C@H](C1)[C@@H](NC1CCN(C(=O)CO)CC1)[C@@H](C3)C2 [Example 205] | 0.83 |
| N#Cc1cnc(NCc2ccccc2Cl)nc1NC[C@]12CC3C[C@H](C1)[C@@H](N1CC(O)C1)[C@@H](C3)C2 [Example 211] | 0.96 |
| N#Cc1cnc(NCc2ccccc2Cl)nc1NC[C@]12CC3C[C@H](C1)C(N1CCNCC1)[C@@H](C3)C2 (some centres unmarked) [Example 319] | 4 |
| N#Cc1cnc(NCc2ccccc2OC(F)(F)F)nc1NCCC(=O)N1CCCNCC1 [Example 387] | 77 |
